Measured values from patent US20160031937A1, “NEURAL REGENERATION PEPTIDES AND USES THEREFOR” (CURONZ HOLDINGS COMPANY LIMITED, priority 2013, published 2016).
Square brackets hold non-standard residues; d marks the D form. Ends that are not written are not given here. Aib = CC(C)(N)C(=O)O

What was measured:
[1] = system: human W9-hESCs; experiment: H2O2 induced oxidative stress injury, LDH detected cell death; assay type: cell-based; conditions: for cell death reduced by (LDH): 50 μM H2O2, first 4 hours, corrected for basal injury; for reduced LDH release, net effect at 24 hours: H2O2 injury; for reduction of LDH detected cell death: between removal of H2O2 at 4 hours and 24 hours; for reduction of LDH release, net effect at 24 hours: H2O2
Method: Experiments with human embryonic stem cells (hESC) were carried out in accordance with the guidelines and regulations of the NHMRC and with the approval of the Austin Health Human Research Ethics Committee (Approval number H2008/03194), and University of Melbourne Human Research Ethics Committee (Approval number 0605017). H9 (WA-09, WiCell) cell lines were grown as previously described (Dottori & Pera, 2007).
Briefly, hESC were cultured on mitomycin-C treated mouse embryonic fibroblasts (MEFs) in hESC medium consisting of high-glucose Dulbecco's Modified Eagle Medium (DMEM) without sodium pyruvate, supplemented with 1% insulin/transferrin/selenium, 0.1 mM β-mercaptoethanol, 1% nonessential amino acids (NEAA), 2 mM glutamine, 25 U/ml penicillin, 25 μg/ml streptomycin (all from Invitrogen) and 20% fetal calf serum (FCS) (Hyclone).
Alternatively, hESC were cultured on mitomycin-C treated human foreskin fibroblasts (HFF; ATCC, CRL-2097) in KSR media consisting of DMEM/nutrient mixture F-12, supplemented with 0.1 mM […], 1% nonessential amino acids (NEAA), 2 mM glutamine, 25 U/ml penicillin, 25 μg/ml streptomycin and 20% knockout serum replacement (all from Invitrogen).
All cells were cultured at 37° C. in 5% CO2 with 100% humidity. Colonies were mechanically dissected every 7 days (subcultivated or passaged) and transferred to freshly prepared MEFs or HFFs. Media was changed every second day.
(§1) Neuronal differentiation was achieved using the noggin induction method described for mouse neurospheres as adapted by Dottori for human neurospheres (Dottori & Pera, 2007). The colonies were maintained at 37° C., with 5% CO2 in hESC medium supplemented with 500 ng/ml of Noggin for 14 days while replacing Noggin every other day.
(§2) At this point, the cells were washed with PBS and the colonies were again mechanically dissociated, but this time the central (differentiated) part of the colony was also cut into smaller pieces using a 26-gauge needle. The pieces were transferred to individual wells in a low adherent 96-well plate containing Neurobasal®A (NBM) (Invitrogen) supplemented with 1× X B-27® (Invitrogen) and 1× N-2 (Invitrogen) 20 ng/ml human recombinant EGF and 20 ng/ml human recombinant bFGF (Pharmacia). Media was changed every 2 to 3 days to allow neurosphere formation over 2 weeks.
In order to facilitate neuronal differentiation, neurospheres were again separated into smaller pieces under a dissection microscope, and three to four pieces were transferred to each well of a 96-well plate. Prior to this transfer, the plate was pre-coated with poly-D-lysine (10 μg/ml in PBS), washed in PBS, recoated with mouse laminin (5 μg/ml in PBS), and washed again. The cells were then grown for 11 days (with media changed every two days) in NBM lacking growth factors prior to induction of injury and assessment of hypothermia.
On the day of experiments, the medium was changed to NBM+N2 containing a B27 preparation lacking the usual antioxidants (Invitrogen; 10889-038) to eliminate their confounding effects (NBM-AO).
The media was replaced with fresh NBM-AO and the cells were incubated for a further 20 hours containing drug, before again measuring LDH. Oxidative stress was induced by adding 50 μM fresh H2O2 (Sigma, H1009) to the growth factor negative NBM on initiation of the experiment with continued culture for 4 hours when LDH was measured and NBM-AO without H2O2 was returned to the culture which was maintained for a further 20 hours before again measuring LDH. […]
Measurement of lactate dehydrogenase activity (a marker of total cell death) and TUNEL staining (a marker of apoptotic death) was performed according to the kit manufacturer's instructions (Roche, 1164479001 and 11684795910 respectively).
Within experiments, each comparison was performed at least in triplicate and the mean of these values taken forward into group comparisons. […]

[2] = system: W9-hESCs; experiment: TUNEL staining for apoptotic cell death after OGD injury; assay type: cell-based, human; conditions: 24 hours, 100 pM NRP2945
Method: as §1
as §2, with “Media was changed every 2 to 3 days to allow neurosphere formation over 2 weeks.” left out
To maintain isoosmotic pressure conditions, 25 mM 2-deoxy-D-glucose was added to NBM-AO medium and equilibrated for 30 minutes at room temperature before the initial media change as described above. […] Culture supernatant was removed after this 4 hour period and stored at 4° C. until analysed for lactate dehydrogenase (LDH) activity. […]
Tunnel positive cells, wells were imaged and the images re-coded independently before quantitation. No additional blinding was performed for the machine read LDH assay process.

[3] = target: T1, homodimeric CXCR4 receptor (Homo sapiens, UniProt P61073); experiment: 125I-SDF-1 displacement binding study (CEREP); conditions: recombinant homodimeric CXCR4 expressing HEK293 cells; unlabelled peptide in competition
T1 construct: host or cells: HEK293
Method: This was determined by radioactive ^125I-SDF-1 displacement studies using CXCR4 homodimeric receptors and unlabelled NNZ-4921 and NRP2945 in competition.

T1 sequence (P61073 whole entry): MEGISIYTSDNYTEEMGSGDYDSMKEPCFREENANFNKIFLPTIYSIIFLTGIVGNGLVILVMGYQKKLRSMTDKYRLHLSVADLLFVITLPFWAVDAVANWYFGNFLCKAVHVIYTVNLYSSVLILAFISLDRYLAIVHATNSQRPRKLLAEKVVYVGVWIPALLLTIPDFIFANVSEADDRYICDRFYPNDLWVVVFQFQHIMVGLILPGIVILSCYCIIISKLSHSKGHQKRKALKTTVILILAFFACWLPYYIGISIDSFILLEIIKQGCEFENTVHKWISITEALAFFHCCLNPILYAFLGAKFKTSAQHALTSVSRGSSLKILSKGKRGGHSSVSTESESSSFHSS

With “Gly Arg Arg Ala Ala Pro Gly Arg Aib Gly Gly (GRRAAPGR[Aib]GG) [NRP2945, synthetic 11-mer peptidomimetic optimized for stability and pharmacokinetics]” the “cell death reduced by (LDH)” value ([1]; 1 pM NRP2945 at injury induction) was 35%, the “cell death reduced by (LDH)” value ([1]; 1 fM NRP2945 at injury induction) was 23.2% and the “cell death reduced by (LDH)” value ([1]; 10 fM NRP2945 at injury induction) was 40%. For the same substance, the “cell death reduced by (LDH)” value ([1]; 100 fM NRP2945 at injury induction) was 44%, the “reduced LDH release, net effect at 24 hours” value (shortened to “reduced LDH release”) ([1]; 1 pM NRP2945) was 26% and the “reduced LDH release” value ([1]; 1 fM NRP2945) was 27%. The “reduced LDH release” value ([1]; 10 fM NRP2945) was 48%, the “reduced LDH release” value ([1]; 100 fM NRP2945) was 47% and the “reduction of LDH detected cell death” value ([1]; 10 fM NRP2945) was 70%. The “reduction of LDH detected cell death” value ([1]; 100 fM NRP2945) was 57%, the “reduction of LDH release, net effect at 24 hours” value (“reduction of LDH release” below) ([1]; repeat experiment, 10 fM NRP2945 added at 0 hours) was 48% and the “reduction of LDH release” value ([1]; repeat experiment, 10 fM NRP2945 added at 1 hour) was 35%. The “reduction of LDH release” value ([1]; repeat experiment, 10 fM NRP2945 added at 3 hours (p≦0.124)) was 23%, the “reduction of LDH release” value ([1]; repeat experiment, 100 fM NRP2945 added at 0 hours) was 41% and the “reduction of LDH release” value ([1]; repeat experiment, 100 fM NRP2945 added at 1 hour) was 39%. For the same substance, the “reduction of LDH release” value ([1]; repeat experiment, 100 fM NRP2945 added at 3 hours) was 27%, the “reduction in cell death (LDH)” value ([1]; repeat experiment, first 4 hours of H2O2 injury, 10 fM NRP2945 added at 0 hours) was 40% and the “reduction in cell death (LDH)” value ([1]; repeat experiment, first 4 hours of H2O2 injury, 10 fM NRP2945 administered one hour after injury induction) was 35%. The “reduction in cell death (LDH)” value ([1]; repeat experiment, first 4 hours of H2O2 injury, 100 fM NRP2945 added at 0 hours) was 37%, the “reduction in cell death (LDH)” value ([1]; repeat experiment, first 4 hours of H2O2 injury, 100 fM NRP2945 administered one hour after injury induction) was 33% and the “effect on cell death (LDH)” value ([1]; repeat experiment, first 4 hours of H2O2 injury, NRP2945 added 3 hours after injury induction (1 hour exposure)) was “no significant beneficial effect”. For the same substance, the “W9-hESCs protected from apoptotic cell death (TUNEL)” value [2] was 23% and the “displacement of 125I-SDF-1 from homodimeric CXCR4 receptor” value [3] was “do not bind to the homodimeric CXCR4 receptor”.
